# Measured values published in patent US12611438B2, “Antiviral composition comprising a nucleolin-binding peptide” (ANYGEN CO., LTD., priority 2021, dated 2026).
# Tests used:
# SARS-COV-2 = experiment: microbe, parasite or virus in culture; conditions: Severe acute respiratory syndrome coronavirus 2, Vero C1008, 24 h
# in vitro = conditions: African green monkey
structure (smiles),measurement,setting,value
"Cc1cccc(C)c1OCC(=O)N[C@@H](Cc1ccccc1)[C@@H](O)C[C@H](Cc1ccccc1)NC(=O)[C@H](C(C)C)N1CCCNC1=O [Lopinavir, lopinavir]",IC50,SARS-COV-2,15.5 µM
same,CC50 at 24 h,in vitro,> 50 µM
